Assay results published in US11021481B2, “Substituted isoindolin-1-ones and 2,3-dihydro-1h-pyrrolo[3,4-c]pyridin-1-ones as HPK1 antagonists” (Nimbus Saturn, Inc., priority 2019, dated 2021).

molecular target: HPK1 (Homo sapiens (Human), UniProt Q92918); assay: HPK1 biochemical enzyme assay (microfluidic mobility shift assay); details: 1.5 nM HPK1, ATP 1 mM final, 30 min preincubation, 60 min at RT, Caliper EZ Reader; read-out: HPK1 1000UMATP caliper IC50
Procedure, shortened: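 Mobility shift readout of HPK1 activity after a 60 min RT reaction with 1 mM ATP, 1 μM substrate and 5 mM MgCl2. Enzyme/substrate mix was first exposed to compounds for 30 min, using ten-point curves topping at 3 μM final.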

Chain of HPK1 (Q92918 whole entry): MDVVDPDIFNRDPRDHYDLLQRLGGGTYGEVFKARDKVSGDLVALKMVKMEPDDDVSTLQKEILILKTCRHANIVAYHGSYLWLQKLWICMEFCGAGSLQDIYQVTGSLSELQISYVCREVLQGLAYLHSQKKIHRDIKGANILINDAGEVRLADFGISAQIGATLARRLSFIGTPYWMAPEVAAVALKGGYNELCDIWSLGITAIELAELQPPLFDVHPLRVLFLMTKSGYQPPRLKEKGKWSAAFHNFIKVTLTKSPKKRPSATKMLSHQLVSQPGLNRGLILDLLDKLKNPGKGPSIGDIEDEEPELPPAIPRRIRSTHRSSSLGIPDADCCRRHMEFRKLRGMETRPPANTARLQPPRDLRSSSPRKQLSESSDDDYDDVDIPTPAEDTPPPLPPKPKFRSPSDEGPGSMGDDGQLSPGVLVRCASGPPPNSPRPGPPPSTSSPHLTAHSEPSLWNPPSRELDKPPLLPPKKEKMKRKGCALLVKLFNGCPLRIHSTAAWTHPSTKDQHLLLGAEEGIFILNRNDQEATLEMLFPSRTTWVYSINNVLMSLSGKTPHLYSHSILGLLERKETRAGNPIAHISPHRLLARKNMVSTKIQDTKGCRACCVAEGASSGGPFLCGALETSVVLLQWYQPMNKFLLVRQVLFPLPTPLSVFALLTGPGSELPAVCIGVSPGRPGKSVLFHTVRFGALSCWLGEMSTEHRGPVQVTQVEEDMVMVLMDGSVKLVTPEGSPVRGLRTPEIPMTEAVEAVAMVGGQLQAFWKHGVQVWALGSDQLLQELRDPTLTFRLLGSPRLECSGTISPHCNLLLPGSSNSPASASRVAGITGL

IC50 [nM] | Compound
< 100 | C[C@H]1CCn2ncc(-c3ccc(Nc4ccc(N5CCN(C)CC5)cn4)c4c3CNC4=O)c2C1 [I-264, (S)-4-(5-methyl-4,5,6,7-tetrahydropyra-zolo[1,5-a]pyridin-3-yl)-7-((5-(4-methylpiperazin-1-yl)pyridin-2-yl)amino)isoin-dolin-1-one]
< 100 | CN1CCN(c2ccc(Nc3ccc(-c4ccnc5c4ccn5C4CC4)c4c3C(=O)NC4)nc2)CC1 [I-265, 4-(1-cyclopropyl-1H-pyrrolo[2,3-b]pyridin-4-yl)-7-((5-(4-methylpiperazin-1-yl)pyridin-2-yl)amino)isoin-dolin-1-one]
> 1000 | COc1cc(N2CCC(O)CC2)cnc1Nc1ccc(-c2ccnc3c2ccn3C)c2c1C(=O)NC2 [I-267, 7-((5-(4-hydroxy-piperidin-1-yl)-3-methoxypyridin-2-yl)amino)-4-(1-methyl-1H-pyrrolo[2,3-b]pyridin-4-yl)isoindolin-1-one]
100 to 1000 | CN1CCN(c2ccc(Nc3cnc(-c4cnc5n4CCC5)c4c3C(=O)NC4)nc2)CC1 [I-268, 4-(6,7-dihydro-5H-pyrrolo[1,2-a]imidazol-3-yl)-7-((5-(4-methylpiperazin-1-yl)pyridin-2-yl)amino)-2.3-dihydro-1H-pyrrolo[3,4-c]pyridin-1-one]
< 100 | CN1CCN(c2ccc(Nc3ccc(-c4ccnc5c4ccn5CC(N)=O)c4c3C(=O)NC4)nc2)CC1 [I-269, 2-(4-(7-((5-(4-methylpiperazin-1-yl)pyridin-2-yl)amino)-1-oxoisoindolin-4-yl)-lH-pyrrolo[2.3-b]pyridin-1-yl)acctamide]
100 to 1000 | CN1CCN(c2ccc(Nc3ccc(-c4ccnc5ocnc45)c4c3C(=O)NC4)nc2)CC1 [I-270, 7-((5-(4-methylpiperazin-1-yl)pyridin-2-yl)amino)-4-(oxazolo[5,4-b]pyridin-7-yl)isoindolin-1-one]
< 100 | CN1CCC(c2ccc(Nc3ccc(-c4ccnc5c4ccn5C)c4c3C(=O)NC4)nc2)CC1=O (stereo not drawn) [I-271, 4-(1-methyl-1H-pyrrolo[2,3-b]pyridin-4-yl)-7-((5-(1-methyl-2-oxopiperidin-4-yl)pyridin-2-yl)amino)isoin-dolin-1-one]
< 100 | Cn1ccc2c(-c3ccc(Nc4ccc(C5(C)CCNCC5)cn4)c4c3CNC4=O)ccnc21 [I-272, 4-(1-methyl-1H-pyrrolo[2,3-b]pyridin-4-yl)-7-((5-(4-methylpiperidin-4-yl)pyridin-2-yl)amino)isoin-dolin-1-one]
> 1000 | Cn1ccc2c(-c3ccc(Nc4ccc(N5CCNCC5)cn4)c4c3C(C)(C)NC4=O)ccnc21 [I-273, 3,3-dimethyl-4-(1-methyl-1H-pyrrolo[2,3-b]pyridin-4-yl)-7-((5-(piperazin-1-yl)pyridin-2-yl)amino)isoindolin-1-one]
< 100 | Cn1ccc2c(-c3ccc(Nc4ccc(N5CC[C@@H](O)C5)cn4)c4c3CNC4=O)ccnc21 [I-278, (R)-7-((5-(3-hydroxy-pyrrolidin-1-yl)pyridin-2-yl)amino)-4-(1-methyl-1H-pyrrolo[2,3-b]pyridin-4-yl)isoindolin-1-one]
< 100 | Cn1ccc2c(-c3ncc(Nc4ccc(N5CCC(O)CC5)cn4)c4c3CNC4=O)cccc21 [I-279, 7-((5-(4-hydroxypi-peridin-1-yl)pyridin-2-yl)amino)-4-(1-methyl-1H-indol-4-yl)-2.3-dihydro-1H-pyrrolo[3,4-c]pyridin-1-one]
> 1000 | Cn1ccc2c(-c3ccc(Nc4ccc(N5CCC(O)CC5)cn4)c4c3C(C)(C)NC4=O)ccnc21 [I-282, 7-((5-(4-hydroxypiper-idin-1-yl)pyridin-2-yl)amino)-3.3-dimethyl-4-(1-methyl-1H-pyrrolo[2,3-b]pyridin-4-yl)isoindolin-1-one]
100 to 1000 | O=C1NCc2c(-c3cnn4c3CCCCC4)ccc(Nc3ccc(N4CCC(O)CC4)cn3)c21 [I-283, 7-((5-(4-hydroxy-piperidin-1-yl)pyridin-2-yl)amino)-4-(5,6,7,8-tetrahydro-4H-pyrazolo[1,5-a]azepin-3-yl)isoindolin-1-one]
< 100 | O=C1NCc2c(-c3cnn4c3CCCC4)ccc(Nc3ccc(N4CCC(O)CC4)cn3)c21 [I-284, 7-((5-(4-hydroxy-piperidin-1-yl)pyridin-2-yl)amino)-4-(4,5,6,7-tetrahydropyra-zolo[1,5-a]pyridin-3-yl)isoindolin-1-one]
< 100 | Cn1ccc2c(-c3ccc(Nc4ccc(N5CC[C@H](O)C5)cn4)c4c3CNC4=O)ccnc21 [I-285, (S)-7-((5-(3-hydroxy-pyrrolidin-1-yl)pyridin-2-yl)amino)-4-(1-methyl-1H-pyrrolo[2,3-b]pyridin-4-yl)isoindolin-1-one]
100 to 1000 | O=C1NCc2c(-c3cnc4n3CCCCC4)ccc(Nc3ccc(N4CCC(O)CC4)cn3)c21 [I-288, 7-((5-(4-hydroxy-piperidin-1-yl)pyridin-2-yl)amino)-4-(6,7,8,9-tetrahydro-5H-imidazo[1,2-a]azepin-3-yl)isoindolin-1-one]
< 100 | Cn1ccc2c(-c3ncc(Nc4ccc(N5C[C@H]6C[C@@H]5CO6)cn4)c4c3CNC4=O)ccnc21 [I-289, 7-((5-((1R,4R)-2-oxa-5-azabicyclo[2.2.1]heptan-5-yl)pyridin-2-yl)amino)-4-(1-methyl-1H-pyrrolo[2,3-b]pyridin-4-yl)-2,3-dihydro-1H-pyrrolo[3,4-c]pyridin-1-one]
> 1000 | CN1CCc2cc(-c3ccc(Nc4ccc(N5CCC(O)CC5)cn4)c4c3CNC4=O)nn2CC1=O [I-290, 2-(7-((5-(4-hydroxy-piperidin-1-yl)pyridin-2-yl)amino)-1-oxoisoindolin-4-yl)-6-methyl-5,6-dihydro-4H-pyrazolo[1,5-d][1,4]diaze-pin-7(8H)-one]
< 100 | Cn1ccc2c(-c3ccc(Nc4ccc(N5CCC(O)(CN6CCOCC6)CC5)cn4)c4c3CNC4=O)ccnc21 [I-291, 7-((5-(4-hydroxy-4-(morpholino-methyl)piperi-din-1-yl)pyridin-2-yl)amino)-4-(1-methyl-1H-pyrrolo[2,3-b]pyridin-4-yl)isoindolin-1-one]
< 100 | Cn1ccc2c(-c3ccc(Nc4ccc(CS(C)(=O)=O)cn4)c4c3CNC4=O)ccnc21 [I-293, 4-(1-methyl-1H-pyrrolo[2,3-b]pyridin-4-yl)-7-((5-((methylsulfonyl)methyl)pyridin-2-yl)amino)isoindolin-1-one]
< 100 | CN1CCc2cc(Nc3ccc(-c4ccnc5c4ccn5C)c4c3C(=O)NC4)nn2CC1=O [I-294, 6-methyl-2-((7-(1-methyl-1H-pyrrolo[2,3-b]pyridin-4-yl)-3-oxoisoindolin-4-yl)amino)-5.6-dihydro-4H-pyrazolo[1,5-d][l,4]diaze-pin-7(8H)-one]
100 to 1000 | O=C1NCc2c(-c3cnc4n3CCCC4)ccc(Nc3ccc(N4CCC(O)CC4)cn3)c21 [I-296, 7-((5-(4-hydroxy-piperidin-1-yl)pyridin-2-yl)amino)-4-(5,6,7,8-tetrahydro-imidazo[1,2-a]pyridin-3-yl)isoindolin-1-one]
< 100 | Cn1ccc2c(-c3ccc(Nc4ccc(N5CC6(CC(O)C6)C5)cn4)c4c3CNC4=O)ccnc21 [I-297, 7-((5-(6-hydroxy-2-azaspiro[3,3]heptan-2-yl)pyridin-2-yl)amino)-4-(1-methyl-1H-pyrrolo[2,3-b]pyridin-4-yl)isoindolin-1-one]
< 100 | COCC1(O)CCN(c2ccc(Nc3ccc(-c4ccnc5c4ccn5C)c4c3C(=O)NC4)nc2)CC1 [I-298, 7-((5-(4-hydroxy-4-(methoxymeth-yl)piperidin-1-yl)pyridin-2-yl)amino)-4-(1-methyl-1H-pyrrolo[2,3-b]pyridin-4-yl)isoindolin-1-one]
< 100 | Cn1ccc2c(-c3ccc(Nc4ccc(N5CCC6(CC5)COC6)cn4)c4c3CNC4=O)ccnc21 [I-299]
< 100 | O=C1NCc2c(-c3cnc4cnccn34)ccc(Nc3ccc(N4CCCOCC4)cn3)c21 [I-300, 7-((5-(1,4-oxazepan-4-yl)pyridin-2-yl)amino)-4-(imidazo[1,2-a]pyrazin-3-yl)isoindolin-1-one]
< 100 | O=C1NCc2c(-c3cnc4cnccn34)ccc(Nc3ccc(N4CCCC(O)CC4)cn3)c21 (stereo not drawn) [I-301, 7-((5-(4-hydroxyaze-pan-1-yl)pyridin-2-yl)amino)-4-(imidazo[1,2-a]pyrazin-3-yl)isoindolin-1-one]
< 100 | C[C@H]1CCn2c(-c3ccc(Nc4ccc(N5CCC(O)CC5)cn4)c4c3CNC4=O)cnc2C1 [I-303, (S)-7-((5-(4-hydroxy-piperidin-1-yl)pyridin-2-yl)amino)-4-(7-methyl-5,6,7.8-tetrahydroimi-dazo[1,2-a]pyridin-3-yl)isoindolin-1-one]
100 to 1000 | O=C1NCc2c(-c3cnc4cnccn34)ccc(Nc3ccc(S(=O)(=O)N4CCC4)cn3)c21 [I-307, 7-((5-(azetidin-1-ylsulfonyl)-pyridin-2-yl)amino)-4-(imidazo[1,2-a]pyrazin-3-yl)isoindolin-1-one]
> 1000 | Cn1ccc2c(-c3ccc(-n4ccc(N5CCC(O)CC5)n4)c4c3CNC4=O)ccnc21 [I-308, 7-(3-(4-hydroxypiper-idin-1-yl)-1H-pyrazol-1-yl)-4-(1-methyl-1H-pyrrolo[2,3-b)pyridin-4-yl)isoindolin-1-one]

Compound | IC50 [nM]
CN1CCC(O)(c2ccc(Nc3ccc(-c4ccnc5c4ccn5C)c4c3C(=O)NC4)nc2)CC1 [I-274, 7-((5-(4-hydroxy-1-methylpiperidin-4-yl)pyridin-2-yl)amino)-4-(1-methyl-1H-pyrrolo[2,3-b]pyridin-4-yl)isoindolin-1-one] | < 100
CN1CCC(C)(c2ccc(Nc3ccc(-c4ccnc5c4ccn5C)c4c3C(=O)NC4)nc2)CC1 [I-275, 7-((5-(1,4-dimethyl-piperidin-4-yl)pyridin-2-yl)amino)-4-(1-methyl-1H-pyrrolo[2,3-b]pyridin-4-yl)isoindolin-1-one] | < 100
O=C1NCc2c(-c3cnc4cnccn34)ccc(Nc3ccc(N4[C@@H]5CC[C@H]4C[C@@H](O)C5)cn3)c21 [I-304, 7-((5-((1R,3r,5S)-3-hydroxy-8-azabicyclo [3,2.1]octan-8-yl)pyridin-2-yl)amino)-4-(imidazo[1,2-a]pyrazin-3-yl)isoindolin-1-one] | < 100
